# In patent publication US20030225152A1, “3-(Arylamino)methylene-1, 3-dihydro-2h-indol-2-ones as kinase inhibitors” (priority 2001, published 2003):
# How the values were obtained:
# [1] = system: VEGF induced increases in intracellular calcium levels in HUVEC (human umbilical vein endothelial cells); test: VEGF Stimulated Ca++ Signal in vitro (FLIPR); format: cell-based; settings: VEGF 5 ng/mL; for IC50: 0.01 to 10.0 μM
# In short: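 HUVEC loaded with Fluo-4 (45 min, 37° C.), washed, then pre-incubated 30 min with compound (10 μM single dose or 0.01–10.0 μM; 0.1% DMSO) before 5 ng/mL VEGF. Fluorescence at 516 nm read by FLIPR; IC50 from % inhibition of max-min VEGF response.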
# [2] = biological target: T1, cytoplasmic domain of the human VEGF receptor (VEGFR-2) (Homo sapiens, UniProt P35968); test: KDR Assay; format: biochemical; settings: His-VEGFR-2; 3.6 μM ATP
# T1 construct: The cytoplasmic domain of the human VEGF receptor (VEGFR-2) was expressed as a Histidine-tagged fusion protein; Histidine tag
# Experimental: The cytoplasmic domain of the human VEGF receptor (VEGFR-2) was expressed as a Histidine-tagged fusion protein following infection of insect cells using an engineered baculovirus. His-VEGFR-2 was purified to homogeneity, as determined by SDS-PAGE, using nickel resin chromatography. Kinase assays were performed in 96 well microtiter plates that were coated overnight with 30 μg of poly-Glu-Tyr (4:1) in 10 mM Phosphate Buffered Saline (PBS), pH 7.2-7.4. The plates were incubated with 1% BSA and then washed four times with PBS prior to starting the reaction. Reactions were carried out in 120 μL reaction volumes containing 3.6 μM ATP in kinase buffer (50 mM Hepes buffer pH 7.4, 20 mM MgCl2, 0.1 mM MnCl2 and 0.2 mM Na3VO4). Test compounds were reconstituted in 100% DMSO and added to the reaction to give a final DMSO concentration of 5%. Reactions were initiated by the addition 0.5 ng of purified protein. Following a ten minute incubation at 25° C., the reactions were washed four times with PBS containing 0.05% Tween-20. 100 μl of a monoclonal anti-phosphotyrosine antibody-peroxidase conjugate was diluted 1:10000 in PBS-Tween-20 and added to the wells for 30 minutes. Following four washes with PBS-Tween-20, 100 μl of O-phenylenediamine Dihydrochloride in Phosphate-citrate buffer, containing urea hydrogen peroxide, was added to the wells for 7 minutes as a colorimetric substrate for the peroxidase. The reaction was terminated by the addition of 100 μl of 2.5N H2SO4 to each well and read using a microplate ELISA reader set at 492 nm. IC50 values for compound inhibition were calculated directly from graphs of optical density (arbitrary units) versus compound concentration following subtraction of blank values.
# T1 sequence (P35968 786-1356): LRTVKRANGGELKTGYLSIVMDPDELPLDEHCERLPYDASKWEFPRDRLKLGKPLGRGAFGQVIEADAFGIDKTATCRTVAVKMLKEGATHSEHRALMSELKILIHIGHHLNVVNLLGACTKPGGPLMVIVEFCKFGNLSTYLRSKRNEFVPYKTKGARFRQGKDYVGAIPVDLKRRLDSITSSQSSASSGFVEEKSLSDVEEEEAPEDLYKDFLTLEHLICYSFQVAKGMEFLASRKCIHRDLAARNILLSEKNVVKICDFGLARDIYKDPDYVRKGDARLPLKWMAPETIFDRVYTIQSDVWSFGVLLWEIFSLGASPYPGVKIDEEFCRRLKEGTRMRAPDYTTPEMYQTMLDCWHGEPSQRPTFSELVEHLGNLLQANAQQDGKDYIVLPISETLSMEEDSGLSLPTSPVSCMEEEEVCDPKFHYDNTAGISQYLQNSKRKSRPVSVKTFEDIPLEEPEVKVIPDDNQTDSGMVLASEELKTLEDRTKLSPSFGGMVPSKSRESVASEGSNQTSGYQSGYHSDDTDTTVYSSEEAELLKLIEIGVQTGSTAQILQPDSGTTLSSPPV
Compound,inhibition at 10 µM ([1]; Homo sapiens) [%],IC50 ([1]; Homo sapiens) [nM],IC50 [2] [nM],IC50 [1] [nM]
CCc1cccc(NC=C2C(=O)Nc3ccccc32)c1 [Example 6],90.1,1840,520,
"O=C1Nc2ccccc2C1=CNc1ccc(OCCCCN2CCSCC2)cc1 [Example 226, 3-{[4-(4-Thiomorpholin-4-yl-butoxy)-phenylamino]-methylene}-1,3-dihydro-indol-2-one]",98,≤ 1000,280,700
"O=C(O)CCCc1ccc(NC=C2C(=O)Nc3ccccc32)cc1 [Example 139, 4-{4-[(2-Oxo-1,2-dihydro-indol-3-ylidenemethyl)-amino]-phenyl}-butyric acid]",99.3,1620,530,
"COc1cc(NC=C2C(=O)Nc3ccccc32)cc(OC)c1 [Example 16, 3-[(3,5-Dimethoxy-phenylamino)-methylene]-1,3-dihydro-indol-2-one]",50,≥ 10000,1270,
"Cc1cccc2c1C(=CNc1ccc(NC(=O)OC(C)(C)C)cc1)C(=O)N2 [Example 187, {4-[(4-Methyl-2-oxo-1,2-dihydro-indol-3-ylidenemethyl)-amino]-phenyl}-carbamic acid tert-butyl ester]",96.8,1670,270,
"O=C1Nc2ccccc2C1=CNc1ccc(S(=O)(=O)NCCO)cc1 [Example 192, N-(2-Hydroxy-ethyl)-4-[(2-oxo-1,2-dihydro-indol-3-ylidenemethyl)-amino]-benzenesulfonamide]",98.7,1530,590,
"COc1ccc(NC=C2C(=O)Nc3ccc(Cl)cc32)cc1 [Example 73, 3-[(4-Methoxyphenylamino)-methylene]-5-chloro-1,3-dihydro-indol-2-one]",56.5,3650,260,
"O=C1Nc2cccc(F)c2C1=CNc1ccc(OCCCN2CCCCC2)cc1 [Example 255, 4-Fluoro-3-{[4-(3-piperidin-1-yl-propoxy)-phenylamino]-methylene}-1,3-dihydro-indol-2-one]",,1300,440,
"O=C1Nc2ccc(F)cc2C1=CNc1ccc(NCCN2CCOCC2)cc1 [Example 244, 5-Fluoro-3-{[4-(2-morpholin-4-yl-ethylamino)-phenylamino]-methylene}-1,3-dihydro-indol-2-one]",96,,190,
"CCN(CC)CCCOc1ccc(NC=C2C(=O)Nc3ccc(Cl)cc32)cc1 [Example 232, 5-Chloro-3-{[4-(3-diethylamino-propoxy)-phenylamino]-methylene}-1,3-dihydro-indol-2-one]",97.1,≤ 1000,160,860
"CCOc1ccc(NC=C2C(=O)Nc3cccc(C)c32)cc1 [Example 122, 3-[(4-Ethoxy-phenylamino)-methylene]-4-methyl-1,3-dihydro-indol-2-one]",71.7,1540,370,
"O=C1Nc2ccccc2C1=CNc1cccc(S(=O)(=O)N(CCO)CCO)c1 [Example 190, N,N-Bis-(2-hydroxy-ethyl)-3-[(2-oxo-1,2-dihydro-indol-3-ylidenemethyl)-amino]-benzenesulfonamide]",54.1,9990,6960,
"Nc1ccc(NC=C2C(=O)Nc3ccccc32)cc1 [Example 180, 3-[(4-Amino-phenylamino)-methylene]-1,3-dihydro-indol-2-one]",98.3,1030,440,
"O=C1Nc2ccccc2C1=CNc1ccc2[nH]ccc2c1 [Example 31, 3-[(5-Indolylamino)-methylene]-1,3-dihydro-indol-2-one]",98.6,≤ 1000,570,720
"O=C1Nc2ccccc2C1=CNc1ccc2[nH]ncc2c1 [Example 32, 3-[(5-Indazolylamino)-methylene]-1,3-dihydro-indol-2-one]",72.2,2660,600,
"CCc1cccc(NC=C2C(=O)Nc3ccc(F)cc32)c1 [Example 176, 3-[(3-Ethyl-phenylamino)-methylene]-5-fluoro-1,3-dihydro-indol-2-one]",67.9,2540,800,
"CC(=O)Nc1ccc(NC=C2C(=O)Nc3ccc(Cl)cc32)cc1 [Example 114, N-{4-[(5-Chloro-2-oxo-1,2-dihydro-indol-3-ylidenemethyl)-amino]-phenyl}-acetamide]",89,1930,920,
"O=C(O)Cc1ccc(NC=C2C(=O)Nc3ccccc32)cc1 [Example 224, 3-[(4-Carboxymethylphenylamino)-methylene]-1,3-dihydro-indol-2-one]",56.2,6310,2270,
"O=C1Nc2ccccc2C1=CNc1ccc(OCCCI)cc1 [Example 200, 3-{[4-(3-Iodo-propoxy)-phenylamino]-methylene}-1,3-dihydro-indol-2-one]",75.2,3480,740,
"CSc1ccc(NC=C2C(=O)Nc3ccccc32)cc1 [Example 136, 3-[(4-Methylsulfanyl-phenylamino)-methylene]-1,3-dihydro-indol-2-one]",63.7,2070,490,
"O=C1Nc2ccccc2C1=CNc1ccc(N2CCCCC2)cc1 [Example 158, 3-[(4-Piperidin-1-yl-phenylamino)-methylene]-1,3-dihydro-indol-2-one]",97.5,1140,390,
"O=C1Nc2ccccc2C1=CNc1ccc(OCCCN2CCSCC2)cc1 [Example 225, 3-{[4-(3-Thiomorpholin-4-yl-propoxy)-phenylamino]-methylene}-1,3-dihydro-indol-2-one]",95.7,≤ 1000,290,560
"COc1ccc(NC=C2C(=O)Nc3cccc(C)c32)cc1OC [Example 126, 3-[(3,4-Dimethoxy-phenylamino)-methylene]-4-methyl-1,3-dihydro-indol-2-one]",95.2,1220,340,
"O=C1Nc2cc(F)ccc2C1=CNc1ccc(N2CCOCC2)cc1 [Example 228, 6-Fluoro-3-[(4-morpholin-4-yl-phenylamino)-methylene]-1,3-dihydro-indol-2-one]",97.2,,80,
"CCN(CC)c1ccc(NC=C2C(=O)Nc3cccc(C)c32)cc1 [Example 189, 3-[(4-Diethylamino-phenylamino)-methylene]-4-methyl-1,3-dihydro-indol-2-one]",98.2,,70,
"NS(=O)(=O)c1ccc(NC=C2C(=O)Nc3ccc(F)cc32)cc1 [Example 166, 4-[(5-Fluoro-2-oxo-1,2-dihydro-indol-3-ylidenemethyl)-amino]-benzenesulfonamide]",49.2,,660,
"O=C1Nc2ccc(Cl)cc2C1=CNc1ccc(OCCN2CCCCC2)cc1 [Example 262, 5-Chloro-3-{[4-(2-piperidin-1-yl-ethoxy)-phenylamino]-methylene}-1,3-dihydro-indol-2-one]",,≤ 1000,210,870
